According to patent US20230407243A1, “GENETIC PLATFORM TO INVESTIGATE THE FUNCTIONS OF BACTERIAL DRUG EFFLUX PUMPS” (priority 2022, published 2023):
Like-named read-outs stand apart in the source and are kept apart here.

Legend:
Format in all cases: cell-based, Escherichia coli
[1] = system: EKO-35 araC::emrKY Pore; assay: MIC susceptibility profiling, porinated efflux platform; conditions: for MIC: Escherichia coli, EKO-35 araC::emrKY Pore, technical duplicate, read-out: Minimum inhibitory concentration
In short: (§1)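 Strains carry the fhuA ΔC/Δ4L pore integrated between glmS and pstS under a constitutive promoter, with pore activity checked by vancomycin susceptibility. Overnight LB cultures were adjusted in PBS pH 7.4 to OD600 ~1.0 and diluted 1/2000 into MHB II. 2-fold compound titrations were read by OD600 after 18 h at 37 °C.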

[2] = system: EKO-35 araC::mdtBC Pore; assay: as above; conditions: for MIC: Escherichia coli, EKO-35 araC::mdtBC Pore, technical duplicate, read-out: Minimum inhibitory concentration
In short: as §1

[3] = system: EKO-35 araC::mexCD Pore; assay: as above; conditions: for MIC: Escherichia coli, EKO-35 araC::mexCD Pore, technical duplicate, read-out: Minimum inhibitory concentration
In short: as §1

[4] = system: EKO-35 araC::mdtEF Pore; assay: as above; conditions: for MIC: Escherichia coli, Table 14A, porinated, technical duplicate, read-out: Minimum inhibitory concentration, EKO-35 araC::mdtEF Pore
In short: as §1

[5] = system: EKO-35 araC::macAB Pore; assay: as above; conditions: for MIC: Escherichia coli, EKO-35 araC::macAB Pore, technical duplicate, read-out: Minimum inhibitory concentration
In short: as §1

[6] = system: EKO-35 strains producing different efflux pumps (EKO-35 araC::X); assay: Checkerboard synergy (FICI) of PAβN or NMP with antibiotics
Method: Synergy measurement using checkerboard analysis was performed in 96-well microtiter plates using the microdilution broth method, according to CLSI guidelines (Patel J. B., 2015). The cell inocula were prepared using the colony resuspension method. The minimum inhibitory concentrations (MICs) were defined as the lowest concentration that provided no growth, as determined by measurement of the OD600nm using a Synergy H1 microplate reader (BioTek). Susceptibility testing was performed in MHB II with a final volume of 100 μL. PAI3N (Bachem Americas) was solubilized in MHB II. […] Solvent controls were included in each plate.
The Fractional Inhibitory Concentration Index (FICI) was used to assess the synergy of PAI3N in combination with different antibiotics. The FICI represents the ΣFIC of each drug. The FICI for each drug was calculated using the following formula: FICI=FICA+FICB=(CA/MICA)+(CB/MICB). Where MICA and MICB are the MICs of drugs A (PAI3N/NMP) and B (antibiotic) alone, and CA and CB are the MICs of the drugs in combination. The effects of PAβN or NMP in combination with antibiotics were classified as: synergistic (FICI<0.5), additive (FICI>0.5-1.0), indifferent (FICI>1.0-2.0), and antagonistic (FICI>2.0). Fold increases in resistance provided by efflux pumps were calculated by dividing the MIC values of strains expressing efflux pumps by the MIC value of EKO-35.

[7] = system: E. coli EKO-35; assay: microbe, parasite or virus in culture; conditions: for MIC: Escherichia coli, EKO35, technical duplicate
In short: (§2)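 MIC derived from pre-incubation-corrected OD600 after 18 h growth at 37° C. (900 rpm) in MHB II. Inoculum was cells from 18 h LB culture adjusted to OD600 ~1.0 in PBS, then diluted 1/2000; compounds two-fold serially titrated in duplicate, DMSO as solvent control.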

[8] = system: wild-type E. coli K-12 str. BW25113; assay: microbe, parasite or virus in culture; conditions: Escherichia coli, BW25113, technical duplicate
In short: as §2

[9] = system: E. coli ΔtolC; assay: microbe, parasite or virus in culture; conditions: for MIC: Escherichia coli, 18 h, read-out: Minimum Inhibitory Concentration, ΔtolC; for Minimum inhibitory concentration (MIC), ΔtolC: Table 10, without pore, technical duplicate
In short: as §2

[10] = EKO-35 acrB, antibiotic in combination with PAβN
[11] = EKO-35 acrEF, PAβN + antibiotic
[12] = EKO-35 acrEF, antibiotic alone (PAβN checkerboard)
[13] = EKO-35 acrEF, antibiotic in combination with PAβN
[14] = EKO-35 mdtEF, PAβN + antibiotic
[15] = EKO-35 mdtEF, antibiotic alone (PAβN checkerboard)
[16] = EKO-35 mdtEF, antibiotic in combination with PAβN
[17] = strain EKO-35 acrB, NMP + antibiotic
[18] = strain EKO-35 acrB, antibiotic in combination with NMP
[19] = strain EKO-35 acrEF, NMP + antibiotic
[20] = strain EKO-35 acrEF, antibiotic alone
[21] = strain EKO-35 acrEF, antibiotic in combination with NMP
[22] = strain EKO-35 mdtEF, NMP + antibiotic
[23] = strain EKO-35 mdtEF, antibiotic alone
[24] = strain EKO-35 mdtEF, antibiotic in combination with NMP
[25] = Table 10, without pore, read-out: Minimum inhibitory concentration (MIC), EKO-35
[26] = Table 13A, non-porinated, read-out: Minimum Inhibitory Concentration, EKO-35
[27] = Table 10, without pore, read-out: Minimum inhibitory concentration (MIC), K-12
[28] = Table 13A, non-porinated, read-out: Minimum Inhibitory Concentration, K-12
[29] = strain EKO-35 acrD, NMP + antibiotic

Compound `CC[C@H]1OC(=O)[C@H](C)[C@@H](O[C@H]2C[C@@](C)(OC)[C@@H](O)[C@H](C)O2)[C@H](C)[C@@H](O[C@@H]2O[C@H](C)C[C@H](N(C)C)[C@H]2O)[C@](C)(O)C[C@@H](C)C(=O)[C@H](C)[C@@H](O)[C@]1(C)O` [erythromycin] has an MIC [1] of 0.195 µg/mL, an MIC [2] of 0.195 µg/mL and an MIC [3] of 1.56 µg/mL. The MIC [4] was 1.56 µg/mL, the MIC [5] was 0.781 µg/mL and the Effect ([6]; EKO-35 acrB, NMP + antibiotic) was “Additive”. The FICI ([6]; EKO-35 acrB, NMP + antibiotic) was 0.531, the Effect ([6]; EKO-35 acrB, PAβN + antibiotic) was “Synergistic” and the FICI ([6]; EKO-35 acrB, PAβN + antibiotic) was 0.078. For the same compound, the “MICb Alone” value ([6]; EKO-35 acrB, antibiotic alone (PAβN checkerboard)) was 64 µg/mL, the “MICb Combined” value [6, 10] was 1 µg/mL and the FICI ([6]; EKO-35 acrEF, NMP + antibiotic) was 2.000. For the same compound, the Effect [6, 11] was “Synergistic”, the “MICb Alone” value [6, 12] was 8 µg/mL and the “MICb Combined” value [6, 13] was 0.5 µg/mL. The Effect ([6]; EKO-35 mdtEF, NMP + antibiotic) was “Synergistic”, the FICI ([6]; EKO-35 mdtEF, NMP + antibiotic) was 0.250 and the Effect [6, 14] was “Synergistic”. For the same compound, the FICI [6, 14] was 0.094, the “MICb Alone” value [6, 15] was 16 µg/mL and the “MICb Combined” value [6, 16] was 0.5 µg/mL. The Effect ([6]; EKO-35 mexCD, NMP + antibiotic) was “Synergistic”, the Effect ([6]; EKO-35 mexCD, PAβN + antibiotic) was “Synergistic” and the “MICb Alone” value ([6]; EKO-35 mexCD, antibiotic alone (PAβN checkerboard)) was 8 µg/mL. For the same compound, the “MICb Combined” value ([6]; EKO-35 mexCD, antibiotic in combination with PAβN) was 0.5 µg/mL, the Effect [6, 17] was “Additive (additive (FICI >0.5-1.0))” and the FICI [6, 17] was 0.531. The “MICb Combined” value [6, 18] was 64 µg/mL, the Effect [6, 19] was “— (indifferent (FICI >1.0))” and the FICI [6, 19] was 2.000. The “MICb Alone” value [6, 20] was 8 µg/mL, the “MICb Combined” value [6, 21] was 8 µg/mL and the Effect [6, 22] was “Synergistic (Synergy (FICI ≤0.5))”. For the same compound, the FICI [6, 22] was 0.250, the “MICb Alone” value [6, 23] was 64 µg/mL and the “MICb Combined” value [6, 24] was 8 µg/mL. For the same compound, the Effect ([6]; strain EKO-35 mexCD, NMP + antibiotic) was “Synergistic (Synergy (FICI ≤0.5))”, the “MICb Alone” value ([6]; strain EKO-35 mexCD, antibiotic alone) was 16 µg/mL and the “MICb Combined” value ([6]; strain EKO-35 mexCD, antibiotic in combination with NMP) was 2 µg/mL. It also gave an MIC [7, 25] of 3.12 µg/mL, an MIC [7, 26] of 3.12 µg/mL and an MIC [8, 27] of 100 µg/mL. The MIC [8, 28] was 100 µg/mL, the MIC [9] was 3.12 µg/mL and the “Minimum inhibitory concentration (MIC), ΔtolC” value [9] was 3.125 µg/mL.

In the case of `CC(=O)O[C@H]1C[C@@]2(C)[C@@H](C[C@@H](O)[C@H]3[C@@]4(C)CC[C@@H](O)[C@@H](C)[C@@H]4CC[C@@]32C)/C1=C(\CCC=C(C)C)C(=O)O` [fusidic acid], the “Fold changes of MICs” value ([1]; EKO-35 araC::emrKY Pore compared to EKO-35-Pore) is reported as 1 fold, the MIC [1] is reported as 0.391 µg/mL and the “Fold changes of MICs” value ([2]; EKO-35 araC::mdtBC Pore compared to EKO-35-Pore) is reported as 1 fold. For the same compound, the MIC [2] was 0.391 µg/mL, the “Fold changes of MICs” value ([3]; EKO-35 araC::mexCD Pore compared to EKO-35-Pore) was 4 fold and the MIC [3] was 1.56 µg/mL. The “Fold changes of MICs” value ([4]; EKO-35 araC::mdtEF Pore compared to EKO-35-Pore) was 8 fold, the MIC [4] was 3.12 µg/mL and the “Fold changes of MICs” value ([5]; EKO-35 araC::macAB Pore compared to EKO-35-Pore) was 1 fold. For the same compound, the MIC [5] was 0.391 µg/mL, the Effect ([6]; EKO-35 acrB, NMP + antibiotic) was “Synergistic” and the FICI ([6]; EKO-35 acrB, NMP + antibiotic) was 0.500. The Effect ([6]; EKO-35 acrB, PAβN + antibiotic) was “Synergistic”, the FICI ([6]; EKO-35 acrB, PAβN + antibiotic) was 0.129 and the “MICb Combined” value [6, 10] was 4 µg/mL. The Effect ([6]; EKO-35 acrD, NMP + antibiotic) was “Additive”, the FICI ([6]; EKO-35 acrD, NMP + antibiotic) was 0.563 and the Effect ([6]; EKO-35 acrD, PAβN + antibiotic) was “Synergistic”. For the same compound, the FICI ([6]; EKO-35 acrD, PAβN + antibiotic) was 0.141, the “MICb Alone” value ([6]; EKO-35 acrD, antibiotic alone (PAβN checkerboard)) was 256 µg/mL and the “MICb Combined” value ([6]; EKO-35 acrD, antibiotic in combination with PAβN) was 4 µg/mL. The Effect ([6]; EKO-35 acrEF, NMP + antibiotic) was “Additive”, the FICI ([6]; EKO-35 acrEF, NMP + antibiotic) was 0.750 and the Effect [6, 11] was “Synergistic”. The “MICb Alone” value [6, 12] was 32 µg/mL, the “MICb Combined” value [6, 13] was 8 µg/mL and the Effect ([6]; EKO-35 mdtEF, NMP + antibiotic) was “Synergistic”. For the same compound, the Effect [6, 14] was “Synergistic”, the FICI [6, 14] was 0.250 and the “MICb Alone” value [6, 15] was 64 µg/mL. For the same compound, the “MICb Combined” value [6, 16] was 8 µg/mL, the Effect [6, 17] was “Synergistic (Synergy (FICI ≤0.5))” and the FICI [6, 17] was 0.500. The “MICb Combined” value [6, 18] was 256 µg/mL, the Effect [6, 29] was “Additive (additive (FICI >0.5-1.0))” and the FICI [6, 29] was 0.563. For the same compound, the “MICb Alone” value ([6]; strain EKO-35 acrD, antibiotic alone) was 256 µg/mL, the “MICb Combined” value ([6]; strain EKO-35 acrD, antibiotic in combination with NMP) was 16 µg/mL and the Effect [6, 19] was “Additive (additive (FICI >0.5-1.0))”. For the same compound, the FICI [6, 19] was 0.750, the “MICb Alone” value [6, 20] was 32 µg/mL and the “MICb Combined” value [6, 21] was 16 µg/mL. The Effect [6, 22] was “Synergistic (Synergy (FICI ≤0.5))”, the “MICb Alone” value [6, 23] was 64 µg/mL and the “MICb Combined” value [6, 24] was 8 µg/mL. For the same compound, the “Fold change of MICs” value ([7]; EKO-35 compared to EKO-35 (reference)) was 1 fold, the MIC [7, 25] was 3.12 µg/mL and the MIC [7, 26] was 3.12 µg/mL. The MIC [8, 27] was 400 µg/mL, the MIC [8, 28] was 400 µg/mL and the MIC [9] was 3.12 µg/mL. For the same compound, the “Minimum inhibitory concentration (MIC), ΔtolC” value [9] was 3.125 µg/mL.
